Measurements taken from PMC11078746 (Nature, 2024).
Values joined by “and” are separate entries in the source; they are usually repeats but may differ in a detail not shown here. Equal values may be shown once.

Experiments:
[1] = test system: SW48 xenografts; experiment: SW48 xenograft efficacy, compound 3 p.o. twice daily; type: in vivo, mouse; conditions: for Tumour volume (TVol): single mouse, listed as WRNi #4
Procedure: All animal studies were conducted in accordance with ethics and procedures covered by permit BS-2275 and BS-1975 issued by the Kantonales Veterinäramt Basel-Stadt and in strict adherence to guidelines of the Eidgenössisches Tierschutzgesetz and the Eidgenössische Tierschutzverordnung, Switzerland. All animal studies were approved by the internal ethics committee. All animals had access to food and water ad libitum and were identified with transponders. They were housed in a specific-pathogen-free facility in IVC racks under a 12 h–12 h light–dark cycle. To establish cell-line-derived xenograft models, 6–7-week-old female athymic nude (Crl:NU(NCr)-Foxn1^nu) or SCID-BEIGE (CB17.Cg-PrkdcscidLystbg-J/Crl) mice from Charles River were engrafted subcutaneously with 5 million tumour cells in HBSS (H6648, Sigma-Aldrich). For SNU-407, Lovo, IM95, RL95.2, Ishikawa and IGROV-1, the cells were concentrated in 50% Matrigel (354234, Corning). Patient-derived xenografts were induced and expanded by transplantation as previously described. […] For the efficacy experiment, mice were randomized into groups (n = 5–6) for a mean tumour size of 100–150 mm^3. […] Blood samples were collected on day 7 and 91. […] Tumour responses are reported with the measures of tumour volumes from the treatment start. […] Animals were randomized (n = 3) and tumour samples were collected at 0, 1, 4, 8 and 24 h on the first day and then collected 4 h after the last treatment on day 3, 8, 10, 14 (including a 24 h timepoint), 17 and 21. Tumours were excised, weighed, either frozen in liquid nitrogen and cryogenic dry pulverized with the CryoPrep system (model CP-02, Covaris) or processed to FFPE after fixation. […] On day 12, blood samples were collected for PK analysis. On the last day (3 h after the last treatment), tumours were excised, weighed, frozen in liquid nitrogen and cryogenic dry pulverized for PD analysis.

[2] = Compound 3 blood PK in SW48 tumour-bearing mice; type: in vivo, mouse; conditions: 15mg/kg BID; 1 h; single mouse; listed as WRNi #4; read-out: Total blood concentration
Procedure: All animal studies were conducted in accordance with ethics and procedures covered by permit BS-2275 and BS-1975 issued by the Kantonales Veterinäramt Basel-Stadt and in strict adherence to guidelines of the Eidgenössisches Tierschutzgesetz and the Eidgenössische Tierschutzverordnung, Switzerland. All animal studies were approved by the internal ethics committee. All animals had access to food and water ad libitum and were identified with transponders. They were housed in a specific-pathogen-free facility in IVC racks under a 12 h–12 h light–dark cycle. To establish cell-line-derived xenograft models, 6–7-week-old female athymic nude (Crl:NU(NCr)-Foxn1^nu) or SCID-BEIGE (CB17.Cg-PrkdcscidLystbg-J/Crl) mice from Charles River were engrafted subcutaneously with 5 million tumour cells in HBSS (H6648, Sigma-Aldrich). For SNU-407, Lovo, IM95, RL95.2, Ishikawa and IGROV-1, the cells were concentrated in 50% Matrigel (354234, Corning). Patient-derived xenografts were induced and expanded by transplantation as previously described. […]. For the efficacy experiment, mice were randomized into groups (n = 5–6) for a mean tumour size of 100–150 mm^3. […] Blood samples were collected on day 7 and 91. […]. Tumour responses are reported with the measures of tumour volumes from the treatment start. […]. Animals were randomized (n = 3) and tumour samples were collected at 0, 1, 4, 8 and 24 h on the first day and then collected 4 h after the last treatment on day 3, 8, 10, 14 (including a 24 h timepoint), 17 and 21. Tumours were excised, weighed, either frozen in liquid nitrogen and cryogenic dry pulverized with the CryoPrep system (model CP-02, Covaris) or processed to FFPE after fixation. […]. On day 12, blood samples were collected for PK analysis. On the last day (3 h after the last treatment), tumours were excised, weighed, frozen in liquid nitrogen and cryogenic dry pulverized for PD analysis. […]. […]

CCc1c(N2CCN(C(=O)c3ncccc3O)CC2)c(=O)n2nc(C3=CCOCC3)nc2n1CC(=O)Nc1ccc(C(F)(F)F)cc1C [compound 3]
Mean TVol ([1]; 15mg/kg BID, day 0): 186.30 mm3 | Tumour volume (TVol) ([1]; 15mg/kg BID, day 0): 125.21 mm3 and 176.57 mm3 and 158.22 mm3 and 139.01 mm3 and 236.47 mm3 and 285.36 mm3 and 183.25 mm3 | Mean TVol ([1]; 15mg/kg BID, day 4): 363.88 mm3 | Tumour volume (TVol) ([1]; 15mg/kg BID, day 4): 335.90 mm3 and 349.83 mm3 and 278.60 mm3 and 343.34 mm3 and 317.21 mm3 and 499.75 mm3 and 422.53 mm3 | Mean TVol ([1]; 15mg/kg BID, day 6): 401.70 mm3 | Tumour volume (TVol) ([1]; 15mg/kg BID, day 6): 446.30 mm3 and 500.68 mm3 | Mean TVol ([1]; 15mg/kg BID, day 8): 483.57 mm3 | Mean TVol ([1]; 15mg/kg BID, day 11): 653.78 mm3 | Tumour volume (TVol) ([1]; 15mg/kg BID, day 11): 649.03 mm3 and 796.01 mm3 and 408.88 mm3 and 697.95 mm3 and 448.35 mm3 and 901.30 mm3 and 674.92 mm3 | Mean TVol ([1]; 15mg/kg BID, day 13): 737.71 mm3 | Tumour volume (TVol) ([1]; 15mg/kg BID, day 13): 506.43 mm3 and 897.69 mm3 and 575.84 mm3 and 720.03 mm3 and 530.25 mm3 and 1055.13 mm3 and 878.60 mm3 | Mean TVol ([1]; 50mg/kg BID, day 0): 186.25 mm3 | Tumour volume (TVol) ([1]; 50mg/kg BID, day 0): 104.69 mm3 and 206.32 mm3 and 158.46 mm3 and 258.06 mm3 and 184.54 mm3 and 140.44 mm3 and 251.24 mm3 | Mean TVol ([1]; 50mg/kg BID, day 4): 286.97 mm3 | Tumour volume (TVol) ([1]; 50mg/kg BID, day 4): 175.53 mm3 and 349.15 mm3 and 205.03 mm3 and 394.61 mm3 and 285.83 mm3 and 247.36 mm3 and 351.29 mm3 | Mean TVol ([1]; 50mg/kg BID, day 6): 317.35 mm3 | Tumour volume (TVol) ([1]; 50mg/kg BID, day 6): 143.51 mm3 and 438.53 mm3 and 201.74 mm3 and 334.71 mm3 and 301.07 mm3 and 265.24 mm3 and 536.64 mm3 | Mean TVol ([1]; 50mg/kg BID, day 8): 332.70 mm3 | Mean TVol ([1]; 50mg/kg BID, day 11): 410.64 mm3 | Tumour volume (TVol) ([1]; 50mg/kg BID, day 11): 304.71 mm3 and 545.58 mm3 and 199.89 mm3 and 340.76 mm3 and 293.59 mm3 and 390.68 mm3 and 799.25 mm3 | Mean TVol ([1]; 50mg/kg BID, day 13): 453.33 mm3 | Tumour volume (TVol) ([1]; 50mg/kg BID, day 13): 281.31 mm3 and 743.48 mm3 and 206.77 mm3 and 483.85 mm3 and 288.10 mm3 and 511.66 mm3 and 658.13 mm3 | tumour response ([1]; 150 mg per kg orally twice daily): stable disease | Mean TVol ([1]; 150mg/kg BID, day 0): 186.70 mm3 | Tumour volume (TVol) ([1]; 150mg/kg BID, day 0 post 1st dose): 121.54 mm3 and 271.88 mm3 and 115.87 mm3 and 175.12 mm3 and 222.88 mm3 and 177.21 mm3 and 222.42 mm3 | Mean TVol ([1]; 150mg/kg BID, day 4): 226.51 mm3 | Tumour volume (TVol) ([1]; 150mg/kg BID, day 4): 200.34 mm3 and 361.96 mm3 and 112.57 mm3 and 220.17 mm3 and 244.46 mm3 and 160.01 mm3 and 286.05 mm3 | Mean TVol ([1]; 150mg/kg BID, day 6): 224.94 mm3 | Tumour volume (TVol) ([1]; 150mg/kg BID, day 6): 174.76 mm3 and 361.01 mm3 and 147.06 mm3 and 189.44 mm3 and 231.82 mm3 and 170.17 mm3 and 300.33 mm3 | Mean TVol ([1]; 150mg/kg BID, day 8): 196.74 mm3 | Mean TVol ([1]; 150mg/kg BID, day 11): 203.13 mm3 | Tumour volume (TVol) ([1]; 150mg/kg BID, day 11): 147.98 mm3 and 318.20 mm3 and 124.24 mm3 and 228.02 mm3 and 223.70 mm3 and 145.76 mm3 and 234.03 mm3 | Mean TVol ([1]; 150mg/kg BID, day 13): 172.38 mm3 | Tumour volume (TVol) ([1]; 150mg/kg BID, day 13): 158.96 mm3 and 252.06 mm3 and 121.12 mm3 and 163.89 mm3 and 181.33 mm3 and 166.20 mm3 and 163.13 mm3 | Reg ([1]; 150 mg/kg p.o. twice daily): 4 % Reg | concentration at 4 h [2]: 680 nM and 520 nM
